The values below come from patent US8901301B2, “Pyrrolo[2,3-]pyridine kinase inhibitors” (Plexxikon Inc., priority 2009, dated 2014).

Molecules are shown by their SMILES.

One assay has as its target T1, CYP3A4(BFC) (Homo sapiens, UniProt P08684).
T1 construct: purchased BD Biosciences
The assay is described as follows: CYP inhibition (fluorescent substrate), CYP3A4(BFC). The assay is classed as in vitro ADME. Conditions: read-out: Cyp IC50 (μM) 3A4(BFC). On the procedure: (§1) CYP (Cytochrome P450) enzymes are the major drug metabolizing enzymes present in the liver. The inhibition of CYP enzyme activity (IC50) for each of CYP1A2, CYP2C19, CYP2C9, CYP2D6, CYP3A4(BFC) and CYP3A4(BQ) is determined for compounds, where inhibition of metabolism of a known substrate leads to a decrease in the fluorescence of the metabolized product. The fluorescence of the product is monitored as a function of compound concentration. Compounds are dissolved in dimethyl sulfoxide to a concentration of 100 mM. These are diluted 1 μL into 82 μL of acetonitrile. An 11 μL aliquot of this solution is then added to 204 μL of cofactor mix (1.3% NADPH Regeneration system Solution A, 1.04% NADPH Regeneration system Solution B from BD Biosciences, 5% acetonitrile and 0.05% dimethyl sulfoxide). These are then serially diluted 1:1 (160 μL to 160 μL co-factor mix) for a total of 10 points. A 10 μL aliquot of this final mixture is dispensed into 384 well assay plates and incubated for 10 minutes at 37° C. […] Assay plates are incubated at 37° C. (CYP1A2-15 min; CYP2C9-45 min; CYP2C19, 2D6 and 3A4-30 min) and read in a Tecan Safire 2 plate reader (CYP1A2, 2C19 and 3A4 409 ex/460 em; CYP2C9 and 2D6 409 ex/530 em). The signal versus compound concentration is used to determine the IC50. The enzymes and substrates for this assay are obtained from BD Biosciences.

The target of the next assay is Src (Homo sapiens, UniProt P12931). The assay is described as follows: Biochemical inhibitory activity, other protein kinases: Src. The following applies: for Kinase having IC50 of >1 μM: listing of the kinase means IC50 >1 μM; for Kinase having IC50 of <1 μM: listing of the kinase means IC50 <1 μM.
The target of the next assay is T2, CYP1A2 (Homo sapiens, UniProt P05177).
T2 construct: purchased BD Biosciences
T2 sequence (P05177 1-516): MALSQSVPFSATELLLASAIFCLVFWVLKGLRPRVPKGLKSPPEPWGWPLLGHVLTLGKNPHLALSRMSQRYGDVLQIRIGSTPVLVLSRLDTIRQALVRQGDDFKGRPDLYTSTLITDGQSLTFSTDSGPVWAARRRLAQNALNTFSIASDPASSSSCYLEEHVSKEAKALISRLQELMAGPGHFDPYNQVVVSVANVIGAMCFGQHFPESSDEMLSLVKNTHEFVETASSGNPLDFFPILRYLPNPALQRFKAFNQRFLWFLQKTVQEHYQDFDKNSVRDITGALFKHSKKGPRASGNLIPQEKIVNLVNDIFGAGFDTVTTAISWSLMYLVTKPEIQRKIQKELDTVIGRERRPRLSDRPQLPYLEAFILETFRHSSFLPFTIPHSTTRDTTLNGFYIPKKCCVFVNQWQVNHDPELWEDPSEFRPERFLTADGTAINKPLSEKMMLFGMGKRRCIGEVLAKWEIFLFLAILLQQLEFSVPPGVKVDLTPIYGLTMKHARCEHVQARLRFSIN
Kind of assay: CYP inhibition (fluorescent substrate), CYP1A2. Type of assay: in vitro ADME. The following applies: substrate CEC; read-out: Cyp IC50 (μM) 1A2. On the procedure: as §1

In another assay the test system is COLO205 cells. The assay is described as follows: Cell growth inhibition (Cell Titer Glo), COLO205. Type of assay: cell-based. The following applies: Homo sapiens, COLO 205, 72 h; B-Raf V600E cell line, 3 days. On the procedure: (§2) Compounds are assessed in a variety of cell based assays, employing cells with or without B-Raf V600E mutation, for example cell lines with B-Raf V600E mutation (A375 and COLO205), as well as tumorigenic cell lines with wild-type B-RAF (SW620 and SK-MEL-2). Reagent and assay conditions are as follows:
COLO205 cells growth medium: • RPMI 1640, 2 mM L-glutamine, 1.5 g/L sodium bicarbonate, 4.5 g/L D-glucose, 10 mM HEPES, 1.0 mM sodium pyruvate, 10% fetal bovine serum.
(§3) SK-MEL-2 cells growth medium: • Minimum Eagle essential medium, 2 mM L-glutamine, 1.5 g/L sodium bicarbonate, 0.1 mM non-essential amino acids, 1.0 mM sodium pyruvate, 10% fetal bovine serum. • On day 1, cells are seeded in growth media in 200 μL per well in a 96-well polystyrene tissue culture plate at 2,000 cells per well (A375, COLO205, SK-MEL-2) or 5,000 cells per well for SW620, and incubated at 37° C. and 5% CO2 overnight. • On day 2, compound at 4 mM in dimethyl sulfoxide is serially diluted 1:4 (10 μL with 30 μL dimethyl sulfoxide) seven times for a total of 8 concentration points. For each dilution point a 1 μL aliquot is added to a well containing cells (highest dilution point at 20 μM), with 1 μL of dimethyl sulfoxide as a negative control (each sample at 0.5% dimethyl sulfoxide). The cells are incubated for 3 days at 37° C. in 5% CO2. • On day 5, Cell Titer Glo (Promega) is thawed and added 100 μL to each well and the plate shaken for 1-2 minutes. The plates are incubated for 10 minutes at room temperature, then […] signal is read (e.g. on Safire reader). The measured fluoresence correlates directly with cell number, such that the reading as a function of compound concentration is used to determine the IC50 value.
For orientation: ATP-based viability assays read luminescence as a measure of living cells.

The test system of a further assay is SW620 cells. Kind of assay: Cell growth inhibition (Cell Titer Glo), SW620. The assay is classed as cell-based. The following applies: Homo sapiens, SW-620, 72 h; wild-type B-RAF cell line, 3 days. On the procedure:
as §2
SW620 cells growth medium: • Leibovitz's L-15 medium, 2 mM L-glutamine, 10% fetal bovine serum.
as §3

The target in a further assay is T3, CYP3A4(BQ) (Homo sapiens, UniProt P08684).
T3 construct: purchased BD Biosciences
Kind of assay: CYP inhibition (fluorescent substrate), CYP3A4(BQ). The assay is classed as in vitro ADME. The following applies: read-out: Cyp IC50 (μM) 3A4(BQ). On the procedure: as §1

Src, sequence (P12931 whole entry, species assumed): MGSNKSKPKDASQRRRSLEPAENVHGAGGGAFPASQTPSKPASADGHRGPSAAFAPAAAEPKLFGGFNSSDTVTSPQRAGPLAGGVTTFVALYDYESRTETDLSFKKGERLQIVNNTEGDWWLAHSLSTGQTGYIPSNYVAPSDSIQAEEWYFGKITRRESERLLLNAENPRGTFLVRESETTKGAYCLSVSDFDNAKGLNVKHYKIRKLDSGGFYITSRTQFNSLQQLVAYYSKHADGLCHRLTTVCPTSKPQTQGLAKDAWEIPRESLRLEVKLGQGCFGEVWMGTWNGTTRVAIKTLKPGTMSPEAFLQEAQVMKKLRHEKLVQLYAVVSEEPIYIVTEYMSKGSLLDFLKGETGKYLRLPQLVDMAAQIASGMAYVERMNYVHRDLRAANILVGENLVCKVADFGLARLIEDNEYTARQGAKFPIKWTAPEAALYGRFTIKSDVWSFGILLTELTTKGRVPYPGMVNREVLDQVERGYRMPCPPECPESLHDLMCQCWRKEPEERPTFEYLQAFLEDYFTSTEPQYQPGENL
T3 sequence (P08684 whole entry): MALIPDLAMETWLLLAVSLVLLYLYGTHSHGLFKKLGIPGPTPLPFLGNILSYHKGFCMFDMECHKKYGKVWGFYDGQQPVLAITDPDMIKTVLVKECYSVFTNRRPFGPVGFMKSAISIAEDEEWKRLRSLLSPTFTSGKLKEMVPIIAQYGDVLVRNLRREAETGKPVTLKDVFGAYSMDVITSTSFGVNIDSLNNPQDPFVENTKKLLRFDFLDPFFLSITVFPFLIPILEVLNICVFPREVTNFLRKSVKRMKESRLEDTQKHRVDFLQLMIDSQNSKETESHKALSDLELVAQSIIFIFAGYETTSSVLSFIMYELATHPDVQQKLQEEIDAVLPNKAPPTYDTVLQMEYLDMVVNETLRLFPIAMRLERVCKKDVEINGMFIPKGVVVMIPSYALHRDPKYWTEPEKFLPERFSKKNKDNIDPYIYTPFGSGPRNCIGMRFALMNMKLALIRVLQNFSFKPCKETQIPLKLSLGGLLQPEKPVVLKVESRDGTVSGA
T1 sequence (P08684 whole entry): as above

In the case of `CCCS(=O)(=O)Nc1ccc(F)c(C(=O)c2c[nH]c3ncc(-c4cnc(OC)nc4)cc23)c1F` [Compound P-0001, propane-1-sulfonic acid {2,4-difluoro-3-[5-(2-methoxy-pyrimidin-5-yl)-1H-pyrrolo[2,3-b]pyridine-3-carbonyl]-phenyl}-amide], the IC50 (commonly the concentration that gives 50% inhibition) at CYP3A4(BFC) is greater than 10 µM; at CYP1A2 it was greater than 10 µM; in the assay with COLO205 cells, less than 1 µM; in the assay with SW620 cells, greater than 20 µM; at CYP3A4(BQ), greater than 10 µM. Besides, the “Kinase having IC50 of >1 μM” value at Src is “Src”.
For `CCCS(=O)(=O)Nc1ccc(F)c(C(=O)c2c[nH]c3ncc(C#N)cc23)c1F` [Compound P-0002, propane-1-sulfonic acid [3-(5-cyano-1H-pyrrolo[2,3-b]pyridine-3-carbonyl)-2,4-difluoro-phenyl]-amide], the IC50 on CYP3A4(BFC) is greater than 10 µM; at CYP1A2 it was greater than 10 µM; with COLO205 cells, less than 1 µM; with SW620 cells, greater than 20 µM; on CYP3A4(BQ), greater than 10 µM. Also, on Src, the “Kinase having IC50 of >1 μM” value was “Src”.
With `CCCS(=O)(=O)Nc1cccc(C(=O)c2c[nH]c3ncc(C#N)cc23)c1F` [Compound P-0003, propane-1-sulfonic acid [3-(5-cyano-1H-pyrrolo[2,3-b]pyridine-3-carbonyl)-2-fluoro-phenyl]-amide], the IC50 at CYP3A4(BFC) was greater than 10 µM; on CYP1A2, greater than 10 µM; in the assay on COLO205 cells, less than 2 µM; with SW620 cells, greater than 20 µM; on CYP3A4(BQ) it was greater than 10 µM. For the same compound, the “Kinase having IC50 of >1 μM” value at Src is “Src”.
Turning to `N#Cc1cnc2[nH]cc(C(=O)c3c(F)ccc(NS(=O)(=O)c4cc(F)ccc4F)c3F)c2c1` [Compound P-0004, N-[3-(5-cyano-1H-pyrrolo[2,3-b]pyridine-3-carbonyl)-2,4-difluoro-phenyl]-2,5-difluoro-benzenesulfonamide], the half-maximal inhibitory concentration (IC50) on CYP3A4(BFC) is 5 to 10 µM; at CYP1A2, greater than 10 µM; in the assay with COLO205 cells, less than 1 µM; in the assay with SW620 cells it was greater than 20 µM; at CYP3A4(BQ), 5 to 10 µM. Also, at Src, the “Kinase having IC50 of <1 μM” value is recorded as “Src”.
As for `N#Cc1cnc2[nH]cc(C(=O)c3c(F)ccc(NS(=O)(=O)c4cccc(F)c4)c3F)c2c1` [Compound P-0005, N-[3-(5-cyano-1H-pyrrolo[2,3-b]pyridine-3-carbonyl)-2,4-difluoro-phenyl]-3-fluoro-benzenesulfonamide], the IC50 on CYP3A4(BFC) was greater than 10 µM; on CYP1A2 it was greater than 10 µM; in the assay on COLO205 cells it was less than 1 µM; in the assay with SW620 cells, greater than 20 µM; on CYP3A4(BQ), 5 to 10 µM. In addition, the “Kinase having IC50 of <1 μM” value at Src is listed as “Src”.
In the case of `N#Cc1cnc2[nH]cc(C(=O)c3c(F)ccc(NS(=O)(=O)N4CCCC4)c3F)c2c1` [Compound P-0006, pyrrolidine-1-sulfonic acid [3-(5-cyano-1H-pyrrolo[2,3-b]pyridine-3-carbonyl)-2,4-difluoro-phenyl]-amide], the IC50 was greater than 10 µM on CYP3A4(BFC), greater than 10 µM on CYP1A2, less than 1 µM in the assay with COLO205 cells and greater than 10 µM at CYP3A4(BQ). In addition, the “Kinase having IC50 of >1 μM” value at Src is “Src”.
Take `CN(C)S(=O)(=O)Nc1ccc(F)c(C(=O)c2c[nH]c3ncc(C#N)cc23)c1F` [Compound P-0007, N,N-dimethylamino-sulfonic acid [3-(5-cyano-1H-pyrrolo[2,3-b]pyridine-3-carbonyl)-2,4-difluoro-phenyl]-amide]: the IC50 at CYP3A4(BFC) was 5 to 10 µM; at CYP1A2, greater than 10 µM; in the assay on COLO205 cells, less than 3 µM; in the assay on SW620 cells, greater than 20 µM; on CYP3A4(BQ) it was less than 5 µM. In addition, the “Kinase having IC50 of >1 μM” value on Src is reported as “Src”.
